Measured values from article PMC7822874, “Chemoprotective antimalarials identified through quantitative high-throughput screening of Plasmodium blood and liver stage parasites” (Scientific Reports, 2021).
Values joined by “and” are separate entries in the source; they are usually repeats but may differ in a detail not shown here. Identical values can stand only once.

Experiments:
[1] = tested on: T1, Plasmodium falciparum Dd2-attB (parental line), asexual blood stages; experiment: microbe, parasite or virus in culture; design: replicate k of 3 (each line is one of three independent assays; the three lines of one compound and parasite line follow each other); conditions: n = 1; for Individual replicates / Log AC50 (M): 72 h; for AC50: Plasmodium falciparum, DD2, 72 h, read-out: Individual replicates / Log AC50 (converted)
T1 construct: Dd2-attB, the isogenic parental line
In short: (§1)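 Only some compounds were profiled here. Each was assayed three independent times against the Dd2-attB parent and its yeast-DHODH-overexpressing derivative.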

[2] = tested on: T2, Plasmodium falciparum Dd2-attB-ScDHODH (transgenic line expressing yeast DHODH), asexual blood stages; experiment: organism not typed; design: replicate k of 3 (each line is one of three independent assays; the three lines of one compound and parasite line follow each other)
T2 construct: Dd2-attB-ScDHODH, the transgenic line that expresses yeast DHODH
In short: as §1

[3] = 72 h; n = 1; read-out: Individual replicates / Log AC50 (converted)

Compound | Individual replicates / Log AC50 (M) [1] | AC50 [1] | Individual replicates / Log AC50 (M) ([2]; 72 h, n = 1) | AC50 [2, 3] | Individual replicates / Log AC50 (M) ([2]; 72 h; n = 1)
COC(=O)c1ccnc2cc(C(OCCC3CCCN3C)c3ccccc3Cl)sc12 (stereo not shown) [NCGC00481040-01] | -5.0986 Log AC50 (M) and -4.9486 Log AC50 (M) | 8.94 µM | -4.8486 Log AC50 (M) | 12.6 µM | –
Oc1ccc(NCc2ccccc2F)c2cccnc12 [NCGC00184883-01] | -5.0986 Log AC50 (M) and -5.0486 Log AC50 (M) | 12.6 µM | -5.0986 Log AC50 (M) | 12.6 µM | –
Oc1ccc(-c2ccccc2F)c2cccnc12 [NCGC00184901-01] | -4.8486 Log AC50 (M) and -4.8986 Log AC50 (M) | 15.9 µM | -4.8486 Log AC50 (M) and -4.7986 Log AC50 (M) | 14.2 µM | –
CN(C)CC1CCCN(C2CCN(C(=O)c3cccc(-c4cc(O)c5ncccc5c4)c3)CC2)C1 (stereo not shown) [NCGC00247737-01] | -5.3986 Log AC50 (M) and -5.3486 Log AC50 (M) | 5.64 µM | -5.4486 Log AC50 (M) | 6.33 µM | –
CC1CN(c2cnc3c(O)ccc(C(=O)O)c3c2)CCN1Cc1ccccc1 (stereo not shown) [NCGC00249383-01] | -4.7486 Log AC50 (M) and -4.8486 Log AC50 (M) | 17.8 µM | -4.7986 Log AC50 (M) | 17.8 µM | –
Cc1cccc(N2CCN(C(=O)Cn3ncc4c3-c3ccccc3OC4)CC2)c1C [NCGC00112661-03] | -4.9486 Log AC50 (M) and -4.7486 Log AC50 (M) | – | -4.8986 Log AC50 (M) and -5.0986 Log AC50 (M) | – | –
CC(C)c1ccc(Nc2c(-c3ccccn3)nc3ccccn23)cc1 [NCGC00104490-03] | -5.1986 Log AC50 (M) and -5.1486 Log AC50 (M) | 5.64 µM | -5.0986 Log AC50 (M) | 5.64 µM | –
CN(C)CCCCCNC(=O)c1cccc(-c2cc(O)c3ncccc3c2)c1 [NCGC00247747-01] | -4.8486 Log AC50 (M) | 14.2 µM | – | 14.2 µM | –
O=C(NC1=CC(=O)c2ccccc2C1=O)c1ccccc1 [NCGC00357425-01] | -5.5986 Log AC50 (M) and -5.7986 Log AC50 (M) and -5.3486 Log AC50 (M) | – | -5.6486 Log AC50 (M) (2×) and -5.2986 Log AC50 (M) | – | –
Oc1ccc(CCc2ccccc2)c2cccnc12 [NCGC00184902-01] | -5.2486 Log AC50 (M) | 7.1 µM | -4.8486 Log AC50 (M) and -5.1486 Log AC50 (M) | 7.1 µM | –
Oc1ccc(/C=C/c2ccccc2F)c2cccnc12 [NCGC00184903-01] | -5.2486 Log AC50 (M) and -5.1486 Log AC50 (M) | 6.33 µM | -4.9986 Log AC50 (M) and -5.1986 Log AC50 (M) | 6.33 µM | –
c1ccc(CCn2nc(-c3cnccn3)nc2CCCN2CCCCC2)cc1 [NCGC00390064-01] | -4.9986 Log AC50 (M) and -5.1486 Log AC50 (M) and -4.8486 Log AC50 (M) | – | -4.7986 Log AC50 (M) and -5.0986 Log AC50 (M) and -4.7486 Log AC50 (M) | – | –
Oc1ccc(CNc2ccc(F)cc2Cl)c2cccnc12 [NCGC00184893-01] | -4.7986 Log AC50 (M) and -4.8486 Log AC50 (M) | 15.9 µM | -4.7986 Log AC50 (M) | 14.2 µM | –
Cc1ccc2nc(-c3ccccn3)c(Nc3ccccc3C)n2c1 [NCGC00106087-03] | -5.3486 Log AC50 (M) and -5.2486 Log AC50 (M) | 4.48 µM | -5.1986 Log AC50 (M) and -5.1486 Log AC50 (M) | 5.64 µM | –
COC(=O)c1ccnc(NCc2ccc(O)c3ncccc23)c1 [NCGC00241031-01] | -4.8986 Log AC50 (M) and -4.7486 Log AC50 (M) | 15.9 µM | -4.7986 Log AC50 (M) | 12.6 µM | –
O=C1C(c2ccc(C(F)(F)F)cc2)=C(Nc2ccc(Cl)cc2)c2ccccc21 [NCGC00107304-02] | -6.0486 Log AC50 (M) and -5.9486 Log AC50 (M) (2×) | – | -5.1986 Log AC50 (M) and -5.3486 Log AC50 (M) and -5.6486 Log AC50 (M) | – | –
CCCCOC(=O)c1ccnc2cc(C(=O)N(CCN(C)C)c3ccccc3)sc12 [NCGC00481684-01] | -4.7986 Log AC50 (M) | 17.8 µM | – | 14.2 µM | –
Oc1ccc(Oc2ccccc2F)c2cccnc12 [NCGC00184907-01] | -4.9986 Log AC50 (M) and -5.0486 Log AC50 (M) | 8.94 µM | -4.8986 Log AC50 (M) and -4.9486 Log AC50 (M) | 14.2 µM | –
Cc1ccc(NC2=C(c3ccc(C(F)(F)F)cc3)C(=O)c3ccccc32)cc1F [NCGC00107266-02] | -6.3986 Log AC50 (M) and -6.3486 Log AC50 (M) (2×) | – | -5.2986 Log AC50 (M) and -5.1986 Log AC50 (M) and -5.5486 Log AC50 (M) | – | –

Compound | Individual replicates / Log AC50 (M) [1] | AC50 [1] | Individual replicates / Log AC50 (M) ([2]; 72 h, n = 1) | AC50 [2, 3] | Individual replicates / Log AC50 (M) ([2]; 72 h; n = 1)
CCO/C=C(\C#N)C(=O)N1CCCN(c2cc(NCCC(=O)OC)nc(-c3ccccn3)n2)CC1 [NCGC00420783-01] | -5.0986 Log AC50 (M) and -5.0486 Log AC50 (M) | 8.94 µM | -5.0486 Log AC50 (M) and -4.8986 Log AC50 (M) | 10 µM | –
Oc1ccc(CNc2cccc(F)c2F)c2cccnc12 [NCGC00183376-01] | -4.7486 Log AC50 (M) | 17.8 µM | – | 17.8 µM | -4.7486 Log AC50 (M)
CC(C)c1c(-c2cnn(C(C)(C)C)c2)[nH]c2c(C#N)cnn2c1=O [NCGC00488278-02] | – | 15.9 µM | -4.7986 Log AC50 (M) | 10 µM | –
COC(=O)c1ccc(O)c2ncc(-c3ccc(C(=O)NCCCN(C)C)cc3)cc12 [NCGC00189510-01] | -5.1486 Log AC50 (M) and -5.1986 Log AC50 (M) | 7.97 µM | -4.7986 Log AC50 (M) and -5.1486 Log AC50 (M) | – | –
COc1ccnc(NCc2ccc(O)c3ncccc23)c1 [NCGC00241023-01] | -4.7986 Log AC50 (M) | 15.9 µM | – | 12.6 µM | -4.8986 Log AC50 (M)
CC(C)OC(=O)c1ccnc2cc(C(OCCN3CCCCC3)c3cccc(N)c3)sc12 (stereo not shown) [NCGC00488684-01] | -5.1986 Log AC50 (M) and -5.1486 Log AC50 (M) | 7.1 µM | -5.0986 Log AC50 (M) | 12.6 µM | –
O=C(c1cccc(-c2cc(O)c3ncccc3c2)c1)N1CCOCC1 [NCGC00244534-01] | -5.0486 Log AC50 (M) and -5.0986 Log AC50 (M) | 12.6 µM | -5.0486 Log AC50 (M) | 14.2 µM | –
CCOC(=O)CCNc1cc(N2CCc3ccccc3CC2)nc(-c2cccnc2)n1 [NCGC00351550-01] | -4.8986 Log AC50 (M) | 14.2 µM | -4.7986 Log AC50 (M) | – | –
O=C(O)c1ccc(O)c2ncc(NC3CCNC3)cc12 (stereo not shown) [NCGC00241039-01] | -4.7486 Log AC50 (M) and -4.7986 Log AC50 (M) | 20 µM | -4.8486 Log AC50 (M) and -4.6486 Log AC50 (M) | 20 µM | –
CN1CCN(C(=O)c2ccc(-c3cnc4c(O)ccc(C(=O)O)c4c3)cc2)CC1 [NCGC00189504-01] | -4.7986 Log AC50 (M) | 17.8 µM | -4.7486 Log AC50 (M) | 15.9 µM | –
CN1CCN(C2CCN(Cc3ccc(O)c4ncccc34)CC2)CC1 [NCGC00183373-01] | – | 17.8 µM | – | 15.9 µM | –
CCOC(=O)c1ccnc(-n2ncc(C(OCCN3CCCCC3)c3ccccc3)c2-c2ccccc2Cl)c1 (stereo not shown) [NCGC00484789-01] | -5.0486 Log AC50 (M) and -4.9986 Log AC50 (M) | 8.94 µM | -5.0486 Log AC50 (M) and -4.9486 Log AC50 (M) | 14.2 µM | –
Oc1ccc(CNc2ccccn2)c2cccnc12 [NCGC00184898-01] | -4.7486 Log AC50 (M) and -4.6986 Log AC50 (M) | 17.8 µM | -4.7486 Log AC50 (M) | 14.2 µM | –
CN1CCN(Cc2cc(COCc3ccccc3)c3cccnc3c2O)CC1 [NCGC00052276-02] | -5.1986 Log AC50 (M) and -5.0486 Log AC50 (M) | 5.03 µM | -5.2986 Log AC50 (M) (2×) and -4.9486 Log AC50 (M) | – | –
c1ccc(CCn2nc(-c3ccccn3)nc2CCCN2CCCCC2)cc1 [NCGC00389173-01] | -5.2986 Log AC50 (M) and -5.0986 Log AC50 (M) and -5.4486 Log AC50 (M) | – | -5.2486 Log AC50 (M) and -5.3986 Log AC50 (M) and -5.0486 Log AC50 (M) | – | –
Oc1ccc(CNc2ccc(F)cc2F)c2cccnc12 [NCGC00184894-01] | -4.9486 Log AC50 (M) and -5.0486 Log AC50 (M) | 14.2 µM | -4.8486 Log AC50 (M) | 17.8 µM | –
Oc1ccc(CNCc2ccccc2F)c2cccnc12 [NCGC00184908-01] | -5.3986 Log AC50 (M) and -5.0486 Log AC50 (M) and -5.1986 Log AC50 (M) | – | -4.7486 Log AC50 (M) and -5.1486 Log AC50 (M) (2×) | – | –
Cc1ccc(C)c(NC2=C(c3ccc(C(F)(F)F)cc3)C(=O)c3ccccc32)c1 [NCGC00107302-02] | -5.8486 Log AC50 (M) and -5.6486 Log AC50 (M) (2×) | – | -5.0486 Log AC50 (M) and -4.9486 Log AC50 (M) and -4.9986 Log AC50 (M) | – | –
